“Also recorded” adds a separate entry of the source.
Key:
[1] = test system: proteins of T-47D cells; assay: Affinity-isolation from T-47D cells, LC-MS/MS analysis of proteins; details: narrower region of the gel; equal concentrations
[2] = test system: HeLa S3 cells; assay: Apoptosis in HeLa S3 cells (Yo-Pro cell permeability, annexin-binding); type: cell-based, human; details: Yo-Pro cell permeability and annexin-binding experiments
[3] = test system: T-47D cells; assay: Cell cycle effects in T-47D cells; type: cell-based, human
[4] = test system: p53; assay: Effect of (+)-avrainvillamide incubation on p53/nucleophosmin, LNCaP cells (Western-blot); type: cell-based, human; details: 24 h
Protocol: (§1) Four 6-well plates (two for each cell line) were charged with 6 mL per well of cell suspension at 2×10^5 cells/mL. […] The following day, stock solutions of (+)-avrainvillamide (1) in fresh cell culture medium were prepared as indicated below:
(§2) To each 6-mL sample, a 200-μL aliquot of the appropriate stock solution was added, resulting in a final concentration of 0-4 μM (+)-avrainvillamide (1). The samples were returned to the incubator (37° C., 5% CO2) for 24 h.
(§3) The cells were resuspended in 1 mL PBS and mixed thoroughly. A 500-μL aliquot from each sample was transferred to a fresh 1.5-mL centrifuge tube. All the samples were centrifuged (5 min at 500×g) and the supernatant was discarded. The resulting 20 samples (10 samples of T-47D cells, treated with 0-4 μM (+)-avrainvillamide, and 10 samples of LNCaP cells, treated with 0-4 μM (+)-avrainvillamide (1), where each sample contained the number of cells from 1 well of a 6-well plate) were separated into two groups. One group of samples was lysed in RIPA buffer (see below) to prepare a series of whole-cell lysates. The other group of samples was first treated with sucrose-hypotonic buffer to prepare a series of cytosolic lysates. The remaining pellets were washed and treated with RIPA buffer to prepare a series of nuclear-enriched lysates (see below).

[5] = previous report: 48-h incubation, MTS/PMS; cited from earlier work
[6] = test system: MALME-3M and MALME-3 cells; assay: Selectivity assay, malignant melanoma MALME-3M versus fibroblast MALME-3; type: cell-based; details: for selectivity factor, melanoma cells relative to fibroblast control (LC25, 25 percent cell death, estimate of GI50): MALME-3M versus MALME-3
Protocol: […]. A cell line from a healthy fibroblast from the same patient has also been deposited with the American Type Cell Culture Corporation (ATCC). Fresh stockes of both MALME-3M and MALME-3 from ATCC. Avrainvillamide was test against the two cells lines at the same time, taking all possible precautions to ensure that both sets of samples were treated identically. […] As a measure of cytotoxicity and antiproliferative activity, we calculated both LC50 and LC25 (as an estimate of GI50).
The 9.7-fold selectivity at 25 percent cell death is representative of at least a modest degree of selectivity. For comparison, cytochalsine B and geldanamycin were analyzed in identical experiments. Cytochalasine B is a non-selective cytotoxic agent for which a selectivity factor of 0.2 at 25 percent cell death was observed. Geldanamycin is known to be a potent, selective inhibitor of tumor cell growth for which a selectivity factor of >100 at 25 percent cell death was observed.

[7] = target: nucleophosmin (Homo sapiens, UniProt P06748); assay: Competitive binding affinity-isolation with probe 5 in T-47D lysates, nucleophosmin
[8] = test system: p53; assay: Effect of (+)-avrainvillamide incubation on p53/nucleophosmin, T-47D cells (Western-blot); type: cell-based, human; details: 24 h
Protocol: as §1, §2, §3

[9] = test system: LNCaP and T-47D cells; assay: Western blot for apoptotic markers in LNCaP and T-47D cells; type: cell-based, human
[10] = target: T1, exportin-1 (XPO1) (Homo sapiens, UniProt O14980); assay: Competitive binding affinity-isolation with probe 5 in T-47D lysates, exportin-1; details: 10 μM probe 5, 100 μM inhibitor
T1 construct: endogenous in cells; host or cells: T-47D lysate
Description: (§4) The supernatant was discarded.
(§5) See above for solution preparation.

[11] = target: T2, peroxiredoxin 1 (PRX1) (Homo sapiens, UniProt Q06830); assay: Competitive binding affinity-isolation with probe 5 in T-47D lysates, peroxiredoxin 1; details: 10 μM probe 5, 100 μM inhibitor
T2 construct: endogenous in cells; host or cells: T-47D lysate
Description: as §4, §5

[12] = test system: HeLa S3 cells; assay: Transfection/apoptosis experiments in nucleophosmin-depleted HeLa S3 cells; type: cell-based, human; details: 24 h, Yo-Pro iodide/propidium iodide flow cytometry
Protocol: The concentration of the cell suspension was determined using a hemacytometer, and a suspension of 1×10^5 cells/mL was prepared.
A siRNA targeting NPM1.1 (Applied Biosystems, Cat. No. AM16708; ID 143640; 11.4 μL from a 50 μM stock solution) was added to Opti-MEM (938.6 μL). At the same time, a control siRNA (Applied Biosystems, Cat. No. AM4611; 11.4 μL from a 50 μM stock) was similarly added to Opti-MEM (938.6 μL).
The culture flasks were rinsed with an additional 5 mL medium, which was likewise added to the centrifuge tubes.
The concentration of the cell suspensions was determined using a hemacytometer. Over the course of the 2 d transfection period, both the transfected and mock-transfected cells grew ˜4-fold.
12-well plates were charged with 3 mL per well of suspensions of the transfected or mock-transfected cells, at 2.5×10^4 cells per mL. […] The following day, solutions of cell culture medium containing (+)-avrainvillamide or vehicle control were prepared. 500-μL aliquots of these solutions were added to the 3-mL samples. The treated samples were returned to the incubator (37° C., 5% CO2) for 24 h.
The supernatant was discarded, and the samples were cooled on ice. Apoptosis detection buffer (500 μL; see above for preparation) was added to each sample. […]
Each sample was analyzed on an LSRII flow cytometer, with 20,000 events recorded per sample. […]

With `CC1(C)C=Cc2c(ccc3c2[N+]([O-])=C2C3=C[C@@]34NC(=O)C5(CCCN5C3=O)CC4C2(C)C)O1` (single isomer, unassigned; (+)) [compound 1, (+)-Avrainvillamide] the “detection of nucleophosmin by LC-MS/MS after affinity isolation” value [1] was “not detected”, the “cell death in HeLa S3 cells” value [2] was “cell death through apoptosis” and the “cell cycle accumulatory effects” value [3] was “immediate decrease in the number of cells in S-phase, followed by an increase in G2/M cells”. For the same compound, the “concentration giving a substantial increase in cellular p53” value [4] was 500 nM, the “fold more potent than the unnatural enantiomer (antiproliferative activity)” value [5] was roughly 9 fold and the “activity against MALME-3M cells” value ([6]; MALME-3M) was “nanomolar activity”. For the same compound, the “selectivity factor, melanoma cells relative to fibroblast control (LC25, 25 percent cell death, estimate of GI50)” value ([6]; listed as Avrainvillamide) was 9.7, the “selectivity factor, melanoma cells relative to fibroblast control (LC25, 25 percent cell death, estimate of GI50)” value ([6]; listed as avrainvillamide) was roughly 10 and the “binding of nucleophosmin to probe 5 in the presence of a 10-fold higher concentration of competitor” value ([7]; 10 μM probe 5, 100 μM competitor, nuclear-enriched and whole-cell T-47D lysates) was “inhibited; also recorded: most effective”. The “concentration required for inhibition of probe 5-nucleophosmin binding” value ([7]; T-47D lysate) was 100 µM, the “inhibition of binding of nucleophosmin to probe 5 by analogues (FIG. 4)” value ([7]; T-47D nuclear-enriched lysate) was “inhibited essentially equivalently” and the “cellular p53 at the highest concentration” value ([8]; 4 μM) was “reduction in cellular p53”. For the same compound, the “concentration giving a substantial increase in cellular p53” value ([8]; Western-blot) was 500 nM, the “apoptotic markers (Western blot)” value [9] was “appearance of pro-apoptotic factors” and the “blocking of the binding of probe 5 to exportin-1 (XPO1)” value [10] was “capable of blocking”. For the same compound, the “blocking of the binding of probe 5 to peroxiredoxin 1 (PRX1)” value [11] was “capable of blocking” and the “apoptosis in HeLa S3 cells reduced in nucleophosmin (siRNA) relative to mock-transfected cells” value [12] was “enhanced sensitivity”.

From US20110105515A1, “TARGETING THE ONCOPROTEIN NUCLEOPHOSMIN” (President and Fellows of Harvard College, priority 2007, published 2011)
